IC50 data for 39 molecules are collected here from BindingDB's records for patent WO2025049746 (Eikon Therapeutics, 2025).

Assay [1] concerns the target Bifunctional 3'-5' exonuclease/ATP-dependent helicase WRN (Homo sapiens, UniProt Q14191). Kind of assay: ADP-Glo Kinase Assay. The method, then: ATPase activity was measured using the ADP-Glo Kinase Assay following the manufacturers recommended protocol.
For orientation: In ADP-Glo the light output rises with the ADP produced.

For assay [2], the target named is T1, Bifunctional 3'-5' exonuclease/ATP-dependent helicase WRN [480-1251] (UniProt Q14191).
T1 construct: 480-1251
Put plainly: Biochemical Activity Assays.

The pIC50 is −log10 of the IC50, conventionally taken in molar units. A low value points to a large IC50.

The structures appear in SMILES notation. pIC50: −log10 of the molar value.

Sequence of Bifunctional 3'-5' exonuclease/ATP-dependent helicase WRN (Q14191 whole entry): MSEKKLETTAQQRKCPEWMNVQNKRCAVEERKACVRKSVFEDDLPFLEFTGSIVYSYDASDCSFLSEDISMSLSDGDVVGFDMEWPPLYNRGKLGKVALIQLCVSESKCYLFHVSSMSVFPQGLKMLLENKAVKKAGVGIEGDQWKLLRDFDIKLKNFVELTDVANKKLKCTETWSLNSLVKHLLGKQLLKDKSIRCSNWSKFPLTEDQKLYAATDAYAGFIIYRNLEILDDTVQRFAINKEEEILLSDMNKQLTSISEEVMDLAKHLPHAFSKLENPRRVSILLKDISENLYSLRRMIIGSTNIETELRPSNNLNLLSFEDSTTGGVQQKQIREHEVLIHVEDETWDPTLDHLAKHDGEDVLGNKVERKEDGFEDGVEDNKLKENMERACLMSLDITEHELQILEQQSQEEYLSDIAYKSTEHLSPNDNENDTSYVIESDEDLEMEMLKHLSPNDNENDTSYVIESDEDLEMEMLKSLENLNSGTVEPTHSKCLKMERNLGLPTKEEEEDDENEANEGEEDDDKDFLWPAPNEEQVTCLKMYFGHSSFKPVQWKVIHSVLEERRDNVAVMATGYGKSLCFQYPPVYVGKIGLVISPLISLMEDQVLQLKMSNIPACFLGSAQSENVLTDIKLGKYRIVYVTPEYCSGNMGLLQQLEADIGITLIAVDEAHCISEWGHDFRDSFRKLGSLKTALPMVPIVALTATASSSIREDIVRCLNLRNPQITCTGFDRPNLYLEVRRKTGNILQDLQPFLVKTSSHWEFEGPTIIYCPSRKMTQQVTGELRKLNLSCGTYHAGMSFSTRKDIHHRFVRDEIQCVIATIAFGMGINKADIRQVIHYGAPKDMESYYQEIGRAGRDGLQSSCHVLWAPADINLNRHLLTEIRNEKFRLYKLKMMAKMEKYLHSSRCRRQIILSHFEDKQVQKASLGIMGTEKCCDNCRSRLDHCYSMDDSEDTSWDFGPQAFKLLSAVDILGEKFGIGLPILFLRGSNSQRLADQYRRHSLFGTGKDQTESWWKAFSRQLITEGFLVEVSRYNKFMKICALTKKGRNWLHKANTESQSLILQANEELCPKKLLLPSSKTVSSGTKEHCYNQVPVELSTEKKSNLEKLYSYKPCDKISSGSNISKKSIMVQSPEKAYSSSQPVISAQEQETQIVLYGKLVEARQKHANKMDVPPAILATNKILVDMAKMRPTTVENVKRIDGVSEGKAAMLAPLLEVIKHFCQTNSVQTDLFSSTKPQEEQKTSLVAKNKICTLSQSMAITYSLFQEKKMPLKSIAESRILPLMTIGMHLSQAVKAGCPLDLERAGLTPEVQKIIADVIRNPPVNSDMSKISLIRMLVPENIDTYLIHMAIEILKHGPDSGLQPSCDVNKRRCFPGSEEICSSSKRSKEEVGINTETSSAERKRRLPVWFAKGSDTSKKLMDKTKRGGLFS
T1 sequence (Q14191 480-1251): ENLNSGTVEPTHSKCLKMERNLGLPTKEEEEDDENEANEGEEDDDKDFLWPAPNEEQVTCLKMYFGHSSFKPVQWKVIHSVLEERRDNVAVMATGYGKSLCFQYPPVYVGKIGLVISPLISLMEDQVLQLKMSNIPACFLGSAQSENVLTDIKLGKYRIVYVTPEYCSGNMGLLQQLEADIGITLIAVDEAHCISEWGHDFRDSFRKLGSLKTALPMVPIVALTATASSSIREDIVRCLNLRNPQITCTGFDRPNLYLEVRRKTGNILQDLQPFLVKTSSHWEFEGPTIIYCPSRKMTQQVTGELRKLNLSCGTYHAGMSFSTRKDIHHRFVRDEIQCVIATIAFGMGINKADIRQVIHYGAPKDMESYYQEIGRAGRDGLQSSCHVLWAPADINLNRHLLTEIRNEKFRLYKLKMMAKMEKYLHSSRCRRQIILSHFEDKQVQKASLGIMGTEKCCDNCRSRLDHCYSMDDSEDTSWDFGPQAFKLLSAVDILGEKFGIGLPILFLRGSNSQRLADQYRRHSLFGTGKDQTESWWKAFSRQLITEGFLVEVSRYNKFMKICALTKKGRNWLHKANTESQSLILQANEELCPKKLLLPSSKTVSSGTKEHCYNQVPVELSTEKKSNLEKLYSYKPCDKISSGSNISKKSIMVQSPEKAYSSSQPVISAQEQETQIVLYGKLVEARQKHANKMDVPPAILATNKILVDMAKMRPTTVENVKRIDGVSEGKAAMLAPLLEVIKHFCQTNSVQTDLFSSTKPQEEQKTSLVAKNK

For the molecule `CCc1c(N2CCN(C(=O)c3ncnc(C)c3O)CC2)c(=O)n2nc(-c3ccc4c(c3)COC4)nc2n1CC(=O)Nc1ccc(C(F)(F)F)cc1OC1CC1` [WO2025049746, Example 416], the figures for the negative-log IC50 (pIC50) in assay [1] and in assay [2] were 6.41 and 6.80, respectively.

For `CCc1c(N2CCN(C(=O)c3ncnc(C)c3O)CC2)c(=O)n2nc(-c3ccc4c(c3)CC[C@@H]4OC)nc2n1CC(=O)Nc1ccc(C(F)(F)F)cc1Cl` [WO2025049746, Example 207], the pIC50 in assay [1] is 7.41; in assay [2] it was 7.48.

As for `CCc1c(N2CCN(C(=O)c3ncnc(C)c3O)CC2)c(=O)n2nc(-c3ccc4c(c3)oc(=O)n4C)nc2n1CC(=O)Nc1ccc(C(F)(F)F)cc1Cl` [WO2025049746, Example 233], the pIC50 in assay [1] was 7.68; in assay [2], 7.62.

Take `CCc1c(N2CCN(C(=O)c3nsc(-c4ccncc4)c3O)CC2)c(=O)n2nc(-c3ccc4c(c3)COC4)nc2n1CC(=O)Nc1ccc(C(F)(F)F)cc1Cl` [WO2025049746, Example 448]: the pIC50 in assay [1] was 7.31; in assay [2] it was 7.38.

As for `CCc1c(N2CCN(C(=O)c3ncnc(C)c3O)CC2)c(=O)n2nc(-c3ccc4c(c3)[C@@H](C)OC4)nc2n1CC(=O)Nc1ccc(C(F)(F)F)cc1Cl` [WO2025049746, Example 190], the pIC50 in assay [1] was 7.42; in assay [2] it was 7.52.

For the molecule `CCc1c(N2CCN(C(=O)c3ncnc(C)c3O)CC2)c(=O)n2nc(-c3cnc4c(ccn4C)c3)nc2n1CC(=O)Nc1ccc(C(F)(F)F)cc1Cl` [WO2025049746, Example 252], the pIC50 was 7.72 in assay [1] and 7.68 in assay [2].

Take `CCc1c(N2CCN(C(=O)c3ncnc(C)c3O)CC2)c(=O)n2nc(C3=CCOCC3)nc2n1CC(=O)Nc1ccc(OC(F)(F)Cl)cc1` [WO2025049746, Example 72]: the pIC50 in assay [1] is 7.84; in assay [2], 7.91.

Turning to `CCc1c(N2CCN(C(=O)c3ncnc(C)c3O)CC2)c(=O)n2nc(C3=CCOCC3)nc2n1CC(=O)NC1CCC(F)(F)CC1` [WO2025049746, Example 351], the pIC50 is 5.40 in assay [1] and 5.44 in assay [2].

Regarding `CCc1c(N2CCN(C(=O)c3ncnc(C)c3O)CC2)c(=O)n2nc(-c3ccc4nn(C)cc4c3C)nc2n1CC(=O)Nc1ccc(C(F)(F)F)cc1Cl` [WO2025049746, Example 295], the pIC50 in assay [1] is 7.47; in assay [2], 7.46.

In the case of `CCc1c(N2CCN(C(=O)c3ncnc(C)c3O)CC2)c(=O)n2nc(-c3ccc4c(c3)CCN4C)nc2n1CC(=O)Nc1ccc(C(F)(F)F)cc1Cl` [WO2025049746, Example 199], the negative logarithm of the IC50 (pIC50) is 7.40 in assay [1] and 7.49 in assay [2].

Take `CCc1c(N2CCN(C(=O)c3ncnc(C)c3O)CC2)c(=O)n2nc(-c3cccc4nc(C)oc34)nc2n1CC(=O)Nc1ccc(C(F)(F)F)cc1Cl` [WO2025049746, Example 23]: the pIC50 in assay [1] is 7.36; in assay [2], 7.52.

As to `CCc1c(N2CCN(C(=O)c3ncnc(C)c3O)CC2)c(=O)n2nc(-c3ccc4c(c3)n(C)c(=O)n4C)nc2n1CC(=O)Nc1ccc(C(F)(F)F)cc1Cl` [WO2025049746, Example 175], the figures for the pIC50 in assay [1] and in assay [2] were 7.28 and 7.52, respectively.

With `CCc1c(N2CCN(C(=O)c3ncnc(C)c3O)CC2)c(=O)n2nc(-c3ccc4oc(=O)n(C)c4c3)nc2n1CC(=O)Nc1ccc(C(F)(F)F)cc1Cl` [WO2025049746, Example 225], the pIC50 in assay [1] is 7.57; in assay [2], 7.49.

Regarding `CCc1c(N2CCN(C(=O)c3ncnc(C)c3O)CC2)c(=O)n2nc(-c3ccc4c(c3)C(C)(C)CO4)nc2n1CC(=O)Nc1ccc(C(F)(F)F)cc1Cl` [WO2025049746, Example 193], the pIC50 in assay [1] is 7.14; in assay [2] it was 7.28.

For the molecule `CCc1c(N2CCN(C(=O)c3nccc4nn[nH]c34)CC2)c(=O)n2nc(C3=CCOCC3)nc2n1CC(=O)Nc1ccc(C(F)(F)F)cc1Cl` [WO2025049746, Example 48], the pIC50 in assay [1] was 7.57; in assay [2], 7.70.

In the case of `CCc1c(N2CCN(C(=O)c3ncnc(C)c3O)CC2)c(=O)n2nc(-c3ccc4c(c3)COC4)nc2n1CC(=O)Nc1c(Cl)cc(C(F)(F)F)c2ccoc12` [WO2025049746, Example 447], the pIC50 in assay [1] and in assay [2] was 7.42 each time.

Turning to `CCc1c(N2CCN(C(=O)c3ncnc(C)c3O)CC2)c(=O)n2nc(-c3ccn4nc(F)cc4c3)nc2n1CC(=O)Nc1ccc(C(F)(F)F)cc1Cl` [WO2025049746, Example 251], the pIC50 was 7.59 in assay [1] and 7.60 in assay [2].

As to `CCc1c(N2CCN(C(=O)c3ncnc(C)c3O)CC2)c(=O)n2nc(N(C)C)nc2n1CC(=O)Nc1c(Cl)cc(C(F)(F)F)c2c1CC2` [WO2025049746, Example 387], the values for the pIC50 in assay [1] and in assay [2] were 7.39 and 7.49, respectively.

`CCc1c(N2CCN(C(=O)c3ncnc(C)c3O)CC2)c(=O)n2nc(C3=CCOCC3)nc2n1CC(=O)NC1CC2C(C1)C2(F)F` (stereo not drawn) [WO2025049746, Example 350]: the negative-log IC50 (pIC50) in assay [1] is 5.17; in assay [2] it was 5.22.

For the molecule `CCc1c(N2CCN(C(=O)c3ncnc(C)c3O)CC2)c(=O)n2nc(-c3ccn4nccc4c3F)nc2n1CC(=O)Nc1ccc(C(F)(F)F)cc1Cl` [WO2025049746, Example 241], the figures for the pIC50 in assay [1] and in assay [2] were 7.74 and 7.72, respectively.

On to `CCc1c(N2CCN(C(=O)c3ncnc(C)c3O)CC2)c(=O)n2nc(-c3ccc4c(c3)CO[C@H]4C)nc2n1CC(=O)Nc1ccc(C(F)(F)F)cc1Cl` [WO2025049746, Example 192], for which the pIC50 in assay [1] is 7.40; in assay [2], 7.51.

`CCc1c(N2CCN(C(=O)c3ncnc(C)c3O)CC2)c(=O)n2nc(-c3ccc4ncn(C)c(=O)c4c3)nc2n1CC(=O)Nc1ccc(C(F)(F)F)cc1Cl` [WO2025049746, Example 259]: the pIC50 in assay [1] and in assay [2] was 7.54 throughout.

In the case of `CCc1c(N2CCN(C(=O)c3nocc3O)CC2)c(=O)n2nc(-c3ccc4c(c3)COC4)nc2n1CC(=O)Nc1ccc(C(F)(F)F)cc1Cl` [WO2025049746, Example 446], the pIC50 in assay [1] and in assay [2] was 7.70 throughout.

Turning to `CCc1c(N2CCN(C(=O)c3ncnc(C)c3O)CC2)c(=O)n2nc(-c3ccc(NS(N)(=O)=O)cc3)nc2n1CC(=O)Nc1ccc(C(F)(F)F)cc1Cl` [WO2025049746, Example 329], the results for the pIC50 in assay [1] and in assay [2] were 7.68 and 7.60, respectively.

Consider `CCc1c(N2CCN(C(=O)c3cccc4[nH]c(=O)[nH]c34)CC2)c(=O)n2nc(C3=CCOCC3)nc2n1CC(=O)Nc1ccc(C(F)(F)F)cc1Cl` [WO2025049746, Example 51], for which the pIC50 was 7.24 in assay [1] and 7.36 in assay [2].

`CCc1c(N2CCN(C(=O)c3ncnc(C)c3O)CC2)c(=O)n2nc(-c3ccc4c(c3)CCOC4)nc2n1CC(=O)Nc1ccc(SC(F)(F)F)cc1` [WO2025049746, Example 393]: the pIC50 is 6.30 in assay [1] and 6.38 in assay [2].

Consider `CCc1c(N2CCN(C(=O)c3ncnc(C)c3O)CC2)c(=O)n2nc(-c3cc(F)c4nc(C)oc4c3)nc2n1CC(=O)Nc1ccc(C(F)(F)F)cc1Cl` [WO2025049746, Example 297], for which the pIC50 in assay [1] was 7.51; in assay [2], 7.49.

As for `CCc1c(N2CCN(C(=O)c3ncnc(C)c3O)CC2)c(=O)n2nc(-c3ccc4c(c3)C(C)(C)OC4)nc2n1CC(=O)Nc1ccc(C(F)(F)F)cc1Cl` [WO2025049746, Example 165], the values for the pIC50 in assay [1] and in assay [2] were 7.28 and 7.38, respectively.

As for `CCc1c(N2CCN(C(=O)c3nc4n(c(=O)c3O)CCOC4)CC2)c(=O)n2nc(-c3ccc4c(c3)OCO4)nc2n1CC(=O)Nc1ccc(C(F)(F)F)cc1Cl` [WO2025049746, Example 86], the pIC50 in assay [1] and in assay [2] was 7.67 each time.

`CCc1c(N2CCN(C(=O)C(C)O)CC2)c(=O)n2nc(C3=CCOCC3)nc2n1CC(=O)Nc1ccc(C(F)(F)F)cc1Cl` (stereo not drawn) [WO2025049746, Example 54]: the pIC50 in assay [1] is 6.74; in assay [2] it was 7.34.

Take `CCc1c(N2CCN(C(=O)c3nc4c(cc3O)CCC4)CC2)c(=O)n2nc(-c3ccc4c(c3)COC4)nc2n1CC(=O)Nc1ccc(C(F)(F)F)cc1Cl` [WO2025049746, Example 417]: the figures for the pIC50 in assay [1] and in assay [2] were 6.97 and 7.08, respectively.

With `CCc1c(N2CCN(C(=O)c3ncnc(C)c3O)CC2)c(=O)n2nc(-c3ccc4c(c3)CN(C)C4)nc2n1CC(=O)Nc1ccc(C(F)(F)F)cc1Cl` [WO2025049746, Example 197], the pIC50 was 7.30 in assay [1] and 7.28 in assay [2].

Consider `CCc1c(N2CCN(C(=O)c3ncnc(C)c3O)CC2)c(=O)n2nc(-c3cccc4c3OCCC4)nc2n1CC(=O)Nc1ccc(C(F)(F)F)cc1Cl` [WO2025049746, Example 160], for which the pIC50 in assay [1] is 7.29; in assay [2] it was 7.47.

With `CCc1c(N2CCN(C(=O)c3ncnc(C)c3O)CC2)c(=O)n2nc(-c3nc4c(s3)CCC4)nc2n1CC(=O)Nc1ccc(C(F)(F)F)cc1Cl` [WO2025049746, Example 210], the pIC50 in assay [1] is 7.42; in assay [2] it was 7.51.

Take `CCc1c(N2CCN(C(=O)c3ncnc(C)c3O)CC2)c(=O)n2nc(-c3ccc4oc(C)nc4c3)nc2n1CC(=O)Nc1ccc(C(F)(F)F)cc1Cl` [WO2025049746, Example 21]: the pIC50 in assay [1] is 7.35; in assay [2] it was 7.41.

Regarding `CCc1c(N2CCN(C(=O)c3ncnc(C)c3O)CC2)c(=O)n2nc(-c3cccc4c3OCCO4)nc2n1CC(=O)Nc1ccc(C(F)(F)F)c2c1CC2` [WO2025049746, Example 97], the pIC50 in assay [1] is 7.71; in assay [2], 7.80.

For `CCc1c(N2CCN(C(=O)c3ncnc(C)c3O)CC2)c(=O)n2nc(-c3cc(F)c4c(c3)COC4(C)C)nc2n1CC(=O)Nc1ccc(C(F)(F)F)cc1Cl` [WO2025049746, Example 212], the pIC50 was 7.07 in assay [1] and 7.14 in assay [2].

Take `CCc1c(N2CCN(C(=O)c3ncnc(C)c3O)CC2)c(=O)n2nc(-c3cnc4nccn4c3)nc2n1CC(=O)Nc1ccc(C(F)(F)F)cc1Cl` [WO2025049746, Example 305]: the pIC50 in assay [1] and in assay [2] was 7.32 each time.

Turning to `CCc1c(N2CCN(C(=O)c3ncnc(C)c3O)CC2)c(=O)n2nc(-c3ccc4c(c3)CCO[C@H]4C)nc2n1CC(=O)Nc1ccc(C(F)(F)F)cc1Cl` [WO2025049746, Example 229], the pIC50 was 7.57 in assay [1] and 7.52 in assay [2].
